Here are results for seven compounds from publication PMC9110766, “Structure-Based Design of 2-Aminopurine Derivatives as CDK2 Inhibitors for Triple-Negative Breast Cancer” (Frontiers in Pharmacology, 2022).

Where two headings read alike, the source gives them in different places.

The target of one data set is CDK2/cyclin A (Homo sapiens, UniProt P24941). The data set can be described thus: CDK2 inhibition, Kinase-Glo Luminescent Kinase Assay. It is filed as biochemical. Particulars: geometric means of n ⩾ 3 experiments; 10 µM ATP; read-out: IC50 against CDK2. As to the method:
The IC50 values were calculated using Prism GraphPad software.
On the technique in general: Kinase-Glo measures the ATP left after a reaction by luminescence.

For a further data set, the system named is CDK2/A. Particulars: cited from earlier work.
The subject of the next data set is CDK1/B. Particulars: cited from earlier work.
Another data set addresses CDK1/cyclin B (Homo sapiens, UniProt P06493). The data set can be described thus: CDK1 inhibition, Kinase-Glo Luminescent Kinase Assay. The settings on record: for selectivity for CDK2 over CDK1: ratio of IC50 values. It is filed as biochemical. How it is done:
(§1) Experiments were carried out using the Kinase-Glo® Luminescent Kinase Assays as described previously ([Kashem et al., 2007]). Briefly, all enzymatic reactions were conducted at 30°C for 40 min. The 50 µl reaction mixture contains 40 mM Tris, pH 7.4, 10 mM MgCl2, 0.1 mg/ml BSA, 1 mM DTT, 10 µM ATP, 0.2 μg/ml CDKs, and 100 μM lipid substrate. The compounds were diluted with 10% DMSO and then 5 µl of the dilution was removed and put into the subsequent reaction. The kinase activities were measured by detecting the content of remaining ATP. The luminescent signal was correlated with the amount of residual ATP and negatively correlated with the amount of kinase activity. The IC50 values were calculated using Prism GraphPad software.

In the next data set the target is CDK6/cyclin D3 (Homo sapiens, UniProt Q00534). The data set can be described thus: CDK6 inhibition, Kinase-Glo Luminescent Kinase Assay. It counts as biochemical. The settings on record: for selectivity for CDK2 over CDK6: ratio of IC50 values. How it is done:
as §1

For a further data set, the target named is CDK8/cyclin C (Homo sapiens, UniProt P49336). The data set can be described thus: CDK8 inhibition, Kinase-Glo Luminescent Kinase Assay. It is filed as biochemical. Particulars: for selectivity for CDK2 over CDK8: CDK8 inhibition <20% @ 5 μM; for CDK8/cyclin C Inhibition rate @5 μM (%) / inhibition at 5 µM: compound at 5 μM; for inhibition at 5 µM: read-out: CDK8/cyclin C Inhibition rate @5 μM (%). How it is done:
as §1

Data set [1] relates to MDA-MB-231 cells. The data set can be described thus: Anti-proliferation test (MTT). It counts as cell-based. Particulars: Homo sapiens, 48 h.
The test system of data set [2] is MDA-MB-231 cells. As to the kind of experiment: Cell cycle analysis (PI staining, flow cytometry). It is filed as cell-based, human. The settings on record: 20 μM, 24 h, compared with negative control group. As to the method: MDA-MB-231 cells were seeded in six-well plates and incubated with 20 μM compounds 11c, 11l, 11p, and vehicle (0.2% DMSO) for 24 h. Subsequently, cells were centrifugated and washed with cold PBS buffer. After the centrifugation, the supernatants were removed, and the cells were resuspended in PBS buffer. Then, 10 μl of PI were added and the cells were incubated in the dark for 15 min at room temperature. The stained cells were analyzed by a flow cytometer (BD Accuri C6).
(In flow cytometry, cells or beads pass a laser one at a time.)

A short description of data set [3]: Cytotoxicity (MTT) in human embryonic kidney cells. It counts as cell-based. Particulars: 293T cells. As to the method:
Standard MTT (thiazolyl blue; 3-[4,5-dimethylthiazol-2-yl]-2,5-diphenyltetrazolium bromide) assays were performed as 5 mg/ml. Briefly, MDA-MB-231 or 293T cells were seeded into 96-well plates and incubated for 24 h at 37°C. All compounds were dissolved in DMSO, and a gradient dilution series were prepared in 100 μl of cell medium, added to cells (in triplicates), and incubated for 48 h at 37°C with 5% CO2. MTT was added (5 mg/ml, 20 μl) to each plate and these mixtures were incubated for another 4 h. Then, the medium was removed, and the mixture was completely dissolved in DMSO (200 μL) after shaking for 10 min.

Another data set has as its system CDK4/D3. Set-up: method as in Fry et al., 2004. The settings on record: ref Fry et al., 2004; cited from earlier work.
The subject of the next data set is CDK4/D1. Details: method as in Fry et al., 2004. The settings on record: ref Fry et al., 2004; cited from earlier work.
The next data set concerns CDK6/D2. Set-up: method as in Fry et al., 2004. The settings on record: ref Fry et al., 2004; cited from earlier work.

Sequence of CDK8/cyclin C (P49336 whole entry): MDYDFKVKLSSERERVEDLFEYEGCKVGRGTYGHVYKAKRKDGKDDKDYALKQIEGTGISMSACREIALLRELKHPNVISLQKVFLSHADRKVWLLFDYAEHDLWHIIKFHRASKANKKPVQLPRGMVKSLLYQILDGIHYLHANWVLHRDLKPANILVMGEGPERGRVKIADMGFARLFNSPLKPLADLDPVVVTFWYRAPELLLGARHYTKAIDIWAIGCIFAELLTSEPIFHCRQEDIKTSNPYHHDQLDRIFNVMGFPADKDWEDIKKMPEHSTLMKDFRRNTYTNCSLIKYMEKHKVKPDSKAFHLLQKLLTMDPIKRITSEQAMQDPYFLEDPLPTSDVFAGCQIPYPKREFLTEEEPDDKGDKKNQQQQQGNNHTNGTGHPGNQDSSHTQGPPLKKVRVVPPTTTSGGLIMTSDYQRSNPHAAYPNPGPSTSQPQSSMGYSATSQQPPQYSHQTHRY
Sequence of CDK8/cyclin C (P24863 whole entry partner): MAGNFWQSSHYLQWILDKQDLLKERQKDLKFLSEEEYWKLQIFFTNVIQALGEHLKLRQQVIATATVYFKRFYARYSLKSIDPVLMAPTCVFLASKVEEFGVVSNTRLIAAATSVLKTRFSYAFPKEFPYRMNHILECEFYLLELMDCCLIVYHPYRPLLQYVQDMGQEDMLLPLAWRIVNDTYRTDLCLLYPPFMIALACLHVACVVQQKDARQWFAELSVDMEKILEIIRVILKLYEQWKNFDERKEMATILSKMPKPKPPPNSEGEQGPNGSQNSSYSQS
Sequence of CDK6/cyclin D3 (Q00534 whole entry): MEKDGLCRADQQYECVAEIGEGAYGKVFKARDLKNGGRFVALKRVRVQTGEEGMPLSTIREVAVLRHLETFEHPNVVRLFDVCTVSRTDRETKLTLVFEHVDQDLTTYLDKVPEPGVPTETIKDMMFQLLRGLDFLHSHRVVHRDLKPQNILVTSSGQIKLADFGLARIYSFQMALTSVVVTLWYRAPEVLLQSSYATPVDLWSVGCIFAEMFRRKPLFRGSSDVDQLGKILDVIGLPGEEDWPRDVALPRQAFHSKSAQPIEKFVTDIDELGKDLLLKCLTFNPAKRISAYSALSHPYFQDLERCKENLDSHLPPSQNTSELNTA
Sequence of CDK6/cyclin D3 (P30281 whole entry partner): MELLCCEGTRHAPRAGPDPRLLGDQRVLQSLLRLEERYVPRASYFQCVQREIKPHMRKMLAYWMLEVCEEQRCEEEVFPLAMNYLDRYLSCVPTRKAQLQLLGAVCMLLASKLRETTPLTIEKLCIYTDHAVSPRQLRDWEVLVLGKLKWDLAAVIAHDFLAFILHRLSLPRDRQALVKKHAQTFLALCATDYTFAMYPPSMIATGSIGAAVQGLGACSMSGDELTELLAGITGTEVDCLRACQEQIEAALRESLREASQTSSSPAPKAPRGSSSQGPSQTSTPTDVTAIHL
Sequence of CDK1/cyclin B (P06493 whole entry): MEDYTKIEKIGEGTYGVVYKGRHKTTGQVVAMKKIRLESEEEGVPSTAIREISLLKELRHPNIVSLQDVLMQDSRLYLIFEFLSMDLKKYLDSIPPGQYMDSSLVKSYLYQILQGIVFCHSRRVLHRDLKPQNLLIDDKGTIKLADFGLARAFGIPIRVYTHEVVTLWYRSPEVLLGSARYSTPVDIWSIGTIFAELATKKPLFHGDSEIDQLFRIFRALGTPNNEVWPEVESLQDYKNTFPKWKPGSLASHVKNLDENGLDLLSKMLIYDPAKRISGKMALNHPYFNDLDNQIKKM
Sequence of CDK1/cyclin B (P14635 whole entry partner): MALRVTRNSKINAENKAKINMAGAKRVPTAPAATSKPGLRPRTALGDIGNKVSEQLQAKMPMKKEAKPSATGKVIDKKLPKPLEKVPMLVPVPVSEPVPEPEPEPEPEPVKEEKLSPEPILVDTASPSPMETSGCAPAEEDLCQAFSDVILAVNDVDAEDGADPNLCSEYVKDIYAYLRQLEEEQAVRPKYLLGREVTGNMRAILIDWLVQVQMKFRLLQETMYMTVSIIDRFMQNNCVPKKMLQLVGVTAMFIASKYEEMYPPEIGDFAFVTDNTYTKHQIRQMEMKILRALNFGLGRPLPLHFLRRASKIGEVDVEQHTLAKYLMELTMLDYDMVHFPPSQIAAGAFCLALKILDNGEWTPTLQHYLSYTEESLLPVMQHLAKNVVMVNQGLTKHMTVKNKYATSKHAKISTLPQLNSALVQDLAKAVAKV

In general, IC50 refers to the point on the concentration scale where inhibition reaches its midpoint. The term melting point denotes the temperature of the solid-liquid transition. `Cl.Nc1cccc(-c2nc(Nc3cccc([N+](=O)[O-])c3)nc3[nH]cnc23)c1` [Compound 11a, 6-(3-aminophenyl)-N-(3-nitrophenyl)-9H-purin-2-amine hydrochloride] showed a melting point above 300 °C. Moreover, the half-maximal inhibitory concentration (IC50) on CDK2/cyclin A is 310 ± 20 nM. For the same compound, the concentration for half-maximal inhibition (IC50) in the data set on CDK2/A (ref Wang et al., 2013) was 23 nM. Moreover, in the data set with CDK1/B (ref Wang et al., 2013), the IC50 was 350 nM.

For `Cl.NCc1cccc(-c2nc(Nc3cccc([N+](=O)[O-])c3)nc3[nH]cnc23)c1` [Compound 11c, 6-(3-(aminomethyl)phenyl)-N-(3-nitrophenyl)-9H-purin-2-amine hydrochloride], the melting point lay in the range of 236 to 238 °C. Also, the half-inhibitory concentration (IC50) at CDK2/cyclin A came to 110 ± 10 nM. Further, on CDK1/cyclin B, inhibition was half-maximal at 240 ± 40 nM (IC50) and the “selectivity for CDK2 over CDK1” value is reported as 2 fold. At CDK6/cyclin D3, the IC50 stood at 2200 ± 100 nM and the “selectivity for CDK2 over CDK6” value is listed as 18 fold. In addition, on CDK8/cyclin C, the “selectivity for CDK2 over CDK8” value is reported as “more than 42 fold”, the “CDK8/cyclin C Inhibition rate @5 μM (%)” value is 19% and the inhibition at 5 µM was below 20%. Besides, the IC50 in the data set on MDA-MB-231 cells [1] lay within 8110 to 15700 nM. Moreover, the “effect on cell cycle (percentage of cells in G2/M phase)” value with MDA-MB-231 cells [2] is “increased the percentage of cells in the G2/M phase”.

On to `Cl.NCc1cccc(-c2nc(Nc3ccc(S(N)(=O)=O)cc3)nc3[nH]cnc23)c1` [Compound 11l, 4-((6-(3-(aminomethyl)phenyl)-9H-purin-2-yl)amino)benzenesulfonamide hydrochloride], for which, on CDK2/cyclin A, the half-inhibitory concentration (IC50) is 19 ± 1 nM. At CDK1/cyclin B, the IC50 turned out to be 120 ± 20 nM and the “selectivity for CDK2 over CDK1” value fell in the range of 4.6 to 6.3 fold. For the same compound, on CDK6/cyclin D3, the IC50 was determined as 2700 ± 500 nM and the “selectivity for CDK2 over CDK6” value is recorded as “more than 140 fold”. For the same compound, on CDK8/cyclin C, the “selectivity for CDK2 over CDK8” value is “more than 140 fold”, the “CDK8/cyclin C Inhibition rate @5 μM (%)” value is given as 11% and the inhibition at 5 µM was below 20%. This compound also returned a 50% inhibitory concentration (IC50) in the data set on MDA-MB-231 cells [1] of 8110 to 15700 nM. The half-inhibitory concentration (IC50) at 48 h in data set [3] was above 100000 nM. In the data set with MDA-MB-231 cells [2], the “effect on cell cycle (percentage of cells in G2/M phase)” value is on record as “increased the percentage of cells in the G2/M phase”.

For `CNS(=O)(=O)c1ccc(Nc2nc(-c3cccc(CN)c3)c3nc[nH]c3n2)cc1.Cl` [Compound 11p, 4-((6-(3-(aminomethyl)phenyl)-9H-purin-2-yl)amino)-N-methylbenzenesulfonamide hydrochloride], the melting point is above 300 °C. Besides, the IC50 on CDK2/cyclin A turned out to be 32 ± 1 nM. In addition, on CDK1/cyclin B, the IC50 worked out at 150 ± 20 nM and the “selectivity for CDK2 over CDK1” value lay within 4.6 to 6.3 fold. For the same compound, on CDK6/cyclin D3, 4800 ± 100 nM corresponded to half-maximal inhibition (IC50) and the “selectivity for CDK2 over CDK6” value is given as “more than 140 fold”. At CDK8/cyclin C, the “selectivity for CDK2 over CDK8” value is listed as “more than 140 fold”, the “CDK8/cyclin C Inhibition rate @5 μM (%)” value came out at 15% and the inhibition at 5 µM was below 20%. Further, the half-maximal inhibitory concentration (IC50) in the data set with MDA-MB-231 cells [1] lay within 8110 to 15700 nM. Besides, in the data set with MDA-MB-231 cells [2], the “effect on cell cycle (percentage of cells in G2/M phase)” value is recorded as “increased the percentage of cells in the G2/M phase”.

The compound `CN(C)S(=O)(=O)c1ccc(Nc2nc(-c3cccc(CN)c3)c3nc[nH]c3n2)cc1.Cl` [Compound 11q, 4-((6-(3-(aminomethyl)phenyl)-9H-purin-2-yl)amino)-N,N-dimethylbenzene sulfonamide hydrochloride] yielded a melting point above 300 °C. Besides, the 50% inhibitory concentration (IC50) on CDK2/cyclin A was 180 ± 20 nM.

On to `CC(=O)c1c(C)c2cnc(Nc3ccc(N4CCNCC4)cn3)nc2n(C2CCCC2)c1=O` [Palbociclib], for which the IC50 in the data set with CDK4/D3 was […]; in the data set on CDK4/D1, […]; with CDK6/D2 it was 15 nM.

On to `NS(=O)(=O)c1ccc(Nc2nc(-c3cccc(-c4ccccc4)c3)c3nc[nH]c3n2)cc1` [compound 73, reference compound], for which the 50% inhibitory concentration (IC50) is 44 nM in the data set with CDK2/A (ref Coxon et al., 2017) and 86000 nM in the data set on CDK1/B (ref Coxon et al., 2017).
